Laboratory results as given in patent US20040024048A1, “Medicaments for treating dementia” (priority 2000, published 2004).
Where two headings read alike, the source gives them in different places.

What was measured:
aging animals = settings: cited from earlier work
[1] = test system: patients with HIV dementia; settings: cited from earlier work
[2] = test system: patients with clinical manifestations of dementing deficits; assay: mini-mental state examination (MMSE) in dementia patients; type: in vivo, human
Description: The mini-mental state examination test was published by Marshall Folstein in 1975 and was originally intended as a test to differentiate cognitive functions (Folstein et al., 1975). Because the test is short, it is now used as screening test in studies for establishing inclusion/exclusion criteria. The test covers orientation, attention, short- and medium-term memory, word-finding, reading, writing, and in addition a command to perform an action must be obeyed. The tasks in the test are designed so that they can normally be solved without difficulty by people without cognitive impairment. The maximum score achievable is 30, and a score of less than 24 indicates a dementing disorder. The following levels are generally differentiated (Zec et al., 1992).
(§1) Patients with clinical manifestations of dementing deficits and suspected brain damage based on Alzheimer's dementia or vascular dementia or a similar suspected diagnosis were treated with medicines to improve the symptomatic cognitive deficits (nootropics). Since all the active ingredients currently available in the dementia sector provide only marginal improvements, it was justified, despite the disappointing first study, to administer α-lipoic acid in high dose to patients on the basis of this basic therapy. The effect of the therapy was assessed using standardized clinical dementia assessment scales which are usual now and which are distinguished by high reliability. This comprises the mini-mental state examination (MMSE) or the Alzheimer's disease assessment scale (ADAS). The advantage of these clinical instruments is that the severity of the dementia can be established reliably, irrespective of the organic cerebral basis, which is usually not unambiguous, of the clinical picture of dementia.

[3] = test system: patients with clinical manifestations of dementing deficits; assay: Alzheimer's disease assessment scale (ADAS / ADAS-Cog) in dementia patients; type: in vivo, human
Description: A further test for establishing the neuropsychological status of a dementia patient is the “Alzheimer's Disease Assessment Scale-Cognitive Subscale (ADAS-Cog)” (Rosen et al., 1984). The Alzheimer Disease Assessment Scale was invented by W. G. Rosen, R. C. Mohs, 1988, Rosen and K. L. Davis, 1984, and the German version was produced by R. Ihl and G. Weyer, Beltz Test 1993. The ADAS was not originally intended to be a diagnostic instrument, but separates dementing people from healthy control subjects of the same age very well. The following criteria can be distinguished in the ADAS: cognitive area, noncogn. area, memory, orientation/praxis, motor function, depression, psychotic symptoms, concentration/cooperation, speech. In the version used here, speech is included in the cognitive area, and thus a max. minus score of 70 is possible. It was possible to show for people with Alzheimer-type dementia that the complete scale increases by 5 to 7 points on average over the course of 12 months, and by 14 points on average over the course of 24 months. The items in the cognitive part are most sensitive in this regard.
as §1

[4] = test system: patients with clinical manifestations of dementing deficits; assay: Global Deterioration Scale (GDS) in dementia patients; type: in vivo, human; settings: GDS 4/5 at start
Description: Standardized methods are developed for routine dementia screening, e.g. the mini-mental state examination (MMSE) or the Alzheimer's Disease Assessment Scale (ADAS). Further methods would be: GDS: Global Deterioriation Scale (Reisberg et al., 1982), FAST: Functional Assessment Staging (Reisberg, 1988).

aged rats = settings: high dose, cited from earlier work
[5] = test system: patients with sclerotic dementia and involutional depressions; settings: 25-50 mg, patent calls findings unconfirmed and misleading; cited from earlier work
[6] = Patient 1, Alzheimer's dementia, 4 weeks additional 600 mg a-lipoic acid on Aricept
[7] = Patient 2, additional 600 mg lipoic acid over 7 months on Aricept, Remotiv, vitamin E
[8] = Patient 3, additional 600 mg lipoic acid on Aricept and vitamin E
[9] = Patient 4, 600 mg lipoic acid for 8 months on Aricept, aspirin, vitamin E
[10] = Patient 6, 600 mg lipoic acid on basic therapy
[11] = Patient 11, dementia plus parkinsonism, 600 mg lipoic acid 4 months on Aricept and Madopar T
[12] = Patient 8, 600 mg lipoic acid 4 weeks, Aricept 8 weeks
[13] = patients with HIV dementia, administration of α-lipoic acid
[14] = Patient 2, Alzheimer's dementia, Aricept 5/10 mg/day for 12 months, before lipoic acid
[15] = Patient 3, Alzheimer's dementia, Aricept 5 mg/day 13 months plus 600 mg vitamin E
[16] = Patient 4, Alzheimer's dementia, Aricept 5/10 mg/day 19 months, 300 mg aspirin and 600 mg vitamin E 20 months

Question: With O=C(O)CCCCC1CCSS1 (stereo not drawn) [R(+)-α-lipoic acid] as the molecule, how does the “influence on motor functions” value (aging animals) read?
Answer: Its value is “beneficial influence”.

Question: With C#CCN(C)[C@H](C)Cc1ccccc1 [deprenyl] as the molecule, how does the “effects on cognitive performance” value ([1]; demented patients, active control drug in the HIV dementia study) read?
Answer: Its value is “confirmed its known beneficial effects”.

Question: For CCN(C)C(=O)Oc1cccc([C@H](C)N(C)C)c1 [Exelon], which MMSE score decrease ([2]; Patient 10, frontal cerebral atrophy, Exelon 6 mg/day for 9 months) is on record?
Answer: Its MMSE score decrease is 5.

Question: What does the source list for O=C(O)CCCCC1CCSS1 (stereo not drawn) [α-lipoic acid, 1,2-dithiolane-3-pentanoic acid]?
Answer: MMSE score improvement [2, 6]: 2; improvement in the MMSE score [2, 7]: 1 point; MMSE score improvement [2, 8]: 1; improvement in the MMSE score [2, 9]: 2; MMSE score improvement ([2]; Patient 5, first 3 months of 600 mg lipoic acid on basic therapy): 1; course of the dementia (MMSE) since lipoic acid [2, 10]: no further deterioration; improvement in the MMSE score ([2]; Patient 7, after two months of 600 mg lipoic acid on Aricept and vitamin E): 1; MMSE score now ([2]; Patient 8, Alzheimer's dementia, 600 mg lipoic acid 4 weeks, Aricept 8 weeks, score 18 at start of lipoic acid): 20; improvement in the MMSE score ([2]; Patient 9, Lewy body dementia, 600 mg lipoic acid on Aricept and Madopar): 3; improvement in the MMSE score ([2]; Patient 10, frontal cerebral atrophy, additional 600 mg lipoic acid on Exelon): 1; MMSE score course [2, 11]: remained at the same level; MMSE score reached ([2]; Patient 12, frontal cerebral atrophy, 600 mg lipoic acid 4 weeks, Aricept 8 weeks, other drugs, from 16): 18; ADAS score decrease [3, 6]: 6; ADAS score reached ([3]; Patient 1, Alzheimer's dementia, after 4 weeks additional 600 mg a-lipoic acid on Aricept): 18; improvement in the ADAS score [3, 7]: 11 points; ADAS score recovery [3, 8]: 2; ADAS score went back [3, 9]: 3 points; ADAS score loss [3, 10]: 8; ADAS course ([3]; Patient 7, 600 mg lipoic acid on Aricept and vitamin E): remains constant; ADAS score decline [3, 12]: 3; ADAS score reached [3, 12]: 35 error points; ADAS score course [3, 11]: remained at the same level; ADAS score decrease ([3]; Patient 12, frontal cerebral atrophy, 600 mg lipoic acid 4 weeks, Aricept 8 weeks): 5; ADAS score reached ([3]; Patient 12, frontal cerebral atrophy, 600 mg lipoic acid 4 weeks, Aricept 8 weeks, from 41 points): 36 points; GDS reached (improved) ([4]; Patient 3, additional 600 mg lipoic acid): 4; GDS level reached (improved by one level) ([4]; Patient 5, 600 mg lipoic acid): 4; GDS reached (improved) ([4]; Patient 6, 600 mg lipoic acid): 4; effect on the cognitive function ([1]; patients with HIV dementia, 600 mg α-lipoic acid monotherapy): no effect whatsoever; learning [1, 13]: deterioration in learning; verbal learning ability and memory [1, 13]: declined significantly; memory performance (aged rats; aged rats): improvement in memory performance; memory performance (aged rats; young animals): not in young animals; manifestations of dementia [5]: improvement of manifestations of dementia

Question: For COc1cc2c(cc1OC)C(=O)C(CC1CCN(Cc3ccccc3)CC1)C2 (centres unmarked) [Aricept, donepezil], which “deterioration of cognitive status in the MMSE” value ([2]; Patient 1, Alzheimer's dementia, Aricept 5/10 mg/day for 4 months, before lipoic acid) is on record?
Answer: Its value is 1 point.

Question: What about the “deterioration in the MMSE score” value [2, 14] of the same molecule?
Answer: Its value is 7.

Question: What about the MMSE score deterioration [2, 15] of the same molecule?
Answer: The MMSE score deterioration was 2.

Question: What about the “decrease in the MMSE score” value [2, 16] of the same molecule?
Answer: The value was 5.

Question: And the “deterioration in the MMSE score” value ([2]; Patient 5, Alzheimer's dementia, Aricept 5/10 mg/day 24 months with Accuzide 20, Akatinol, 600 mg vitamin E)?
Answer: The value was 6.

Question: And the “deterioration in the MMSE score” value ([2]; Patient 6, Alzheimer's dementia, Aricept 5/10 mg/day 13 months with aspirin 100, Rökan, 600 mg vitamin E)?
Answer: The value was 5.

Question: What about the “deterioration in the MMSE score” value ([2]; Patient 7, Alzheimer's dementia, Aricept 5 mg/day 6 months plus 600 mg vitamin E) of the same molecule?
Answer: The value was 6.

Question: What about the MMSE score reached ([2]; Patient 9, Lewy body dementia, Aricept 5 mg 12 months, Madopar T and Madopar Depot, before lipoic acid) of the same molecule?
Answer: The MMSE score reached was 17.

Question: And the “ADAS score reached (deterioration)” value [3, 14]?
Answer: Its value is 53.

Question: And the ADAS score increase [3, 15]?
Answer: Its ADAS score increase is 14.

Question: What about the “decrease of cognitive ability in the ADAS score” value [3, 16] of the same molecule?
Answer: Its value is 9.
